Here are results for 16 molecules from US10308643B2, “Heterocyclic compound” (Takeda Pharmaceutical Company Limited, priority 2015, dated 2019).

As a reminder, the melting point is the temperature, or range, at which the solid turns liquid.

In data set [1] the target is T1, HDAC1 enzyme (Homo sapiens, UniProt Q13547).
T1 construct: transducing full length HDAC1 and HDAC6 genes into Sf-9 insect cells; GST; purchased SignalChem; host or cells: Sf-9 insect cells
Put plainly: HDAC1/6 Enzyme Inhibitory Assay (HDAC-Glo I/II Assay kit), HDAC1. Format: biochemical. Conditions: 1 μM test compound, wells without enzyme = 100% inhibition; for inhibition at 1 µM: read-out: HDAC1 inhibitory rate (%) (1 μM). A digest of the protocol: (§1)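 Full-length human HDAC1 or HDAC6, GST-purified from Sf-9 cells, was preincubated with compound for 60 min at room temperature in Tris-HCl pH 7.5 buffer with MgCl2, KCl, NaCl, glutathione and Tween-20. HDAC-Glo I/II substrate-developer was then added and reacted for 20 min before luminescence was read. Inhibition was set relative to no-enzyme wells as 100% inhibition.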

Data set [2] deals with T2, HDAC6 enzyme (Homo sapiens, UniProt Q9UBN7).
T2 construct: transducing full length HDAC1 and HDAC6 genes into Sf-9 insect cells; GST; purchased SignalChem; host or cells: Sf-9 insect cells
T2 sequence (Q9UBN7 1-1215): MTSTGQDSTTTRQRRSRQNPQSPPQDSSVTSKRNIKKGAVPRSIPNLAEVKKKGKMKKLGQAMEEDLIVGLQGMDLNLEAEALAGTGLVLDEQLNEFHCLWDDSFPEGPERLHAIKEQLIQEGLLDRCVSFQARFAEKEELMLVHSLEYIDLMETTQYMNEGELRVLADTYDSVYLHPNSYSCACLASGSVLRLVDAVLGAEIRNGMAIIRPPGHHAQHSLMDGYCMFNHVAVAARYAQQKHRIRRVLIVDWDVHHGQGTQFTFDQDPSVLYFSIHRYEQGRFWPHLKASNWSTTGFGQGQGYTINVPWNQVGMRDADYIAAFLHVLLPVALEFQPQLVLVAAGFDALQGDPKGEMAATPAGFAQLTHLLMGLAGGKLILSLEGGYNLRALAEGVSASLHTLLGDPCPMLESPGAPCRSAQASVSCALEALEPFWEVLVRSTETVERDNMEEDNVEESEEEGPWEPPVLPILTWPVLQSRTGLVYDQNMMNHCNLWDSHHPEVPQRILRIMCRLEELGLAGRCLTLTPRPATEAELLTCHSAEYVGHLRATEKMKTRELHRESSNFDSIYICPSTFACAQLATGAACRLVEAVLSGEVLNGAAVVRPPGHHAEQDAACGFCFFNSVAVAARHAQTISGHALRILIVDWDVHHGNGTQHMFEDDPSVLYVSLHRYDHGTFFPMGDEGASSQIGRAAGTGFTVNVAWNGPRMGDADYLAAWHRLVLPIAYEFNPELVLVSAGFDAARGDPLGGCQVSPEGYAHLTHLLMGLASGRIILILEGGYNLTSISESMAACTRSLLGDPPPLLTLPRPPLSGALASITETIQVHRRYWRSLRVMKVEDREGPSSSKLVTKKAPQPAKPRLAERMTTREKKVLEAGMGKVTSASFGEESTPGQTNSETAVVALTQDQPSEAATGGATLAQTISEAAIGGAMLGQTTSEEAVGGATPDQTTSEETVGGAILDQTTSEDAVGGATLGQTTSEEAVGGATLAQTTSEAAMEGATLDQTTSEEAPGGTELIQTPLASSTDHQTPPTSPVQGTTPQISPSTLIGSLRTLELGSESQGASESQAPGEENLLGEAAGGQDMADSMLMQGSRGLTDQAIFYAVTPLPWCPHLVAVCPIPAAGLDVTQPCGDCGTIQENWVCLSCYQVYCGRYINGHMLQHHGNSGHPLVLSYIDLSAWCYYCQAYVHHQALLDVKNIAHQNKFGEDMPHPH
The data set can be described thus: HDAC1/6 Enzyme Inhibitory Assay (HDAC-Glo I/II Assay kit), HDAC6. It is filed as biochemical. Conditions: 1 μM test compound, wells without enzyme = 100% inhibition; for inhibition at 1 µM: read-out: HDAC6 inhibitory rate (%) (1 μM). A digest of the protocol:
as §1

In data set [3] the target is T3, HDAC9 enzyme (Homo sapiens, UniProt Q9UKV0).
T3 construct: transducing full length HDAC9 gene into Sf-9 insect cells; made in house; host or cells: Sf-9 insect cells
The data set can be described thus: HDAC9 Enzyme Inhibitory Assay (HDAC-Glo class IIa). Format: biochemical. The settings on record: 1 μM test compound, wells without enzyme = 100% inhibition; for inhibition at 1 µM: read-out: HDAC9 inhibitory rate (%) (1 μM). An outline of the steps:
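Luminescent HDAC-Glo class IIa readout after a 20 min room-temperature reaction; relative inhibition referenced to enzyme-free wells as 100%. Test compound first preincubated 60 min with Sf-9-expressed, Ni-NTA-purified full-length HDAC9 in pH 7.5 Tris buffer containing 135 mM NaCl, 0.6 mM glutathione and 0.01% Tween-20.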

T1 sequence (Q13547 whole entry): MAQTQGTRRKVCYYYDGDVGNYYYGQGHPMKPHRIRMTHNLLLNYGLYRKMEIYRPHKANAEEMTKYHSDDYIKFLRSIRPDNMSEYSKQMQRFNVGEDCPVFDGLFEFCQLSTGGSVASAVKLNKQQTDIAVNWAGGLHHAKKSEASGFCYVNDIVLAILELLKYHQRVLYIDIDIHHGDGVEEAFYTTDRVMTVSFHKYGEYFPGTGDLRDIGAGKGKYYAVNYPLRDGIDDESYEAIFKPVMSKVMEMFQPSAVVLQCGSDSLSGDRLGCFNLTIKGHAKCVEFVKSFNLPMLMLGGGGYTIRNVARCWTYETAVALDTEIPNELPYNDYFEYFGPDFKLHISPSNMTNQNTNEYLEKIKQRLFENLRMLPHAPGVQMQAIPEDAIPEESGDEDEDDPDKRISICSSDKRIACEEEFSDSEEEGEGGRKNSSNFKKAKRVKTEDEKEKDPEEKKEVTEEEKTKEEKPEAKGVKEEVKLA
T3 sequence (Q9UKV0 whole entry, species assumed): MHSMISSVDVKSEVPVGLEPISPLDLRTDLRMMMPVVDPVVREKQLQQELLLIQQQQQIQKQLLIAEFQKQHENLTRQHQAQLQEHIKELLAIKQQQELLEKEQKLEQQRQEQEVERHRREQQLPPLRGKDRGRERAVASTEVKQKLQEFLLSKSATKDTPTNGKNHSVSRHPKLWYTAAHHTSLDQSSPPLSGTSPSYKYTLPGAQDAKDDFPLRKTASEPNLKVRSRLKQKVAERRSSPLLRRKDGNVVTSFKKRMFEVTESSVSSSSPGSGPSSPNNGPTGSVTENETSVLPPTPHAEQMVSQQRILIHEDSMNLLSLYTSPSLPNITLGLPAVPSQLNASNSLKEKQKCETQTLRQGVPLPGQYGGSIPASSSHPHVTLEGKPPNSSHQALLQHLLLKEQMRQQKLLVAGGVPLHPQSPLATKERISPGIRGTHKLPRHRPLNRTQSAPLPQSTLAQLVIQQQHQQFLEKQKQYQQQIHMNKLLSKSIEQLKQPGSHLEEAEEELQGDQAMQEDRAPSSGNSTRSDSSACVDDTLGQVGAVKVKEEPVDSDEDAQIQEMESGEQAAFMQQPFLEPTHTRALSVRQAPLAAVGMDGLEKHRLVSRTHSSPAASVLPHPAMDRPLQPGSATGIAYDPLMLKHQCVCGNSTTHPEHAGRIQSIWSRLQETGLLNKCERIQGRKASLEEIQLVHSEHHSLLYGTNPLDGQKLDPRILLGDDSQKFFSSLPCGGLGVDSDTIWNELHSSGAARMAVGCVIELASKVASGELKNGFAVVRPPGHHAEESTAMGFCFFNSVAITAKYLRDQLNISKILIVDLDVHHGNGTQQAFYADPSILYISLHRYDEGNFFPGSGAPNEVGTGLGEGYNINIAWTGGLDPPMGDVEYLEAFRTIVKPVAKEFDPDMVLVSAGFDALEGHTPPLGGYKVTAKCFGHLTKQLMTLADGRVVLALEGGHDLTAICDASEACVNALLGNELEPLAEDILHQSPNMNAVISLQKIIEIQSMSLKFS

`O=C(N[C@@H]1CCCC[C@H]1N1Cc2ccc(-c3noc(C(F)(F)F)n3)cc2C1=O)[C@@H]1CCCO1` [Example 90, (2S)-N-((1R,2R)-2-(1-oxo-6-(5-(trifluoromethyl)-1,2,4-oxadiazol-3-yl)-1,3-dihydro-2H-isoindol-2-yl)cyclohexyl)tetrahydrofuran-2-carboxamide] registered a melting point of 132 °C. Further, the inhibition at 1 µM in data set [1] was found to be 5%. The inhibition at 1 µM in data set [2] was determined as 97%. Moreover, in data set [3], the inhibition at 1 µM came out at 37%.

For `CC1(C)CC1C(=O)N[C@@H]1CCCC[C@H]1N1Cc2ccc(-c3noc(C(F)(F)F)n3)cc2C1=O` (stereo partly drawn) [Example 107, 2,2-dimethyl-N-((1R,2R)-2-(1-oxo-6-(5-(trifluoromethyl)-1,2,4-oxadiazol-3-yl)-1,3-dihydro-2H-isoindol-2-yl)cyclohexyl) cyclopropanecarboxamide], the inhibition at 1 µM in data set [1] came out at 11%; in data set [2], 99%; in data set [3], 57%.

For `O=C1CCCN1[C@@H]1CCOC[C@H]1N1Cc2ccc(-c3noc(C(F)(F)F)n3)cc2C1=O` [Example 178, 2-((3S,4R)-4-(2-oxopyrrolidin-1-yl)tetrahydro-2H-pyran-3-yl)-6-(5-(trifluoromethyl)-1,2,4-oxadiazol-3-yl)isoindolin-1-one], the “HDAC1 inhibitory rate (%) (1 μM)” value in data set [1] is reported as 8%. Besides, the “HDAC6 inhibitory rate (%) (1 μM)” value in data set [2] worked out at 99%. Also, the “HDAC9 inhibitory rate (%) (1 μM)” value in data set [3] (1 µM) is on record as 61%.

On to `O=C1c2cc(-c3noc(C(F)(F)F)n3)ccc2CN1[C@@H]1CNC[C@H]1c1ccccc1` (relative stereo) [Example 3, trans-2-(4-phenylpyrrolidin-3-yl)-6-(5-(trifluoromethyl)-1,2,4-oxadiazol-3-yl)isoindolin-1-one], for which the inhibition at 1 µM in data set [1] came out at 87%; in data set [2], 96%; in data set [3], 98%.

Regarding `CCC1(C(=O)N[C@@H]2CCCC[C@H]2N2Cc3ccc(-c4noc(C(F)(F)F)n4)cc3C2=O)COC1` [Example 138, 3-ethyl-N-((1R,2R)-2-(1-oxo-6-(5-(trifluoromethyl)-1,2,4-oxadiazol-3-yl)-1,3-dihydro-2H-isoindol-2-yl)cyclohexyl)oxetane-3-carboxamide], the values for the inhibition at 1 µM in data set [1], in data set [2] and in data set [3] were 2%, 97% and 55%, respectively.

Take `N[C@@H]1CCCC[C@H]1N1Cc2ccc(-c3noc(C(F)(F)F)n3)cc2C1=O` [Example 28, 2-((1R,2R)-2-aminocyclohexyl)-6-[5-(trifluoromethyl)-1,2,4-oxadiazol-3-yl)isoindolin-1-one]: the inhibition at 1 µM in data set [1] came to 3%; in data set [2], 89%; in data set [3], 78%.

In the case of `N#CC1(C(=O)N[C@@H]2CCCC[C@H]2N2Cc3ccc(-c4noc(C(F)(F)F)n4)cc3C2=O)CC1` [Example 122, 1-cyano-N-((1R,2R)-2-(1-oxo-6-(5-(trifluoromethyl)-1,2,4-oxadiazol-3-yl)-1,3-dihydro-2H-isoindol-2-yl)cyclohexyl) cyclopropanecarboxamide], the inhibition at 1 µM is 6% in data set [1], 97% in data set [2] and 67% in data set [3].

`O=C1C[C@@H](C(=O)N[C@@H]2CCCC[C@H]2N2Cc3ccc(-c4noc(C(F)(F)F)n4)cc3C2=O)N1` [Example 93, (2S)-4-oxo-N-((1R,2R)-2-(1-oxo-6-(5-(trifluoromethyl)-1,2,4-oxadiazol-3-yl)-1,3-dihydro-2H-isoindol-2-yl)cyclohexyl)azetidine-2-carboxamide]: the results for the inhibition at 1 µM in data set [1], in data set [2] and in data set [3] were 2%, 95% and 42%, respectively.

For the molecule `O=C(N[C@@H]1CCCC[C@H]1N1Cc2ccc(-c3noc(C(F)(F)F)n3)cc2C1=O)C1C[C@@H]1F` (stereo partly drawn) [Example 98, 2-fluoro-N-((1R,2R)-2-(1-oxo-6-(5-(trifluoromethyl)-1,2,4-oxadiazol-3-yl)-1,3-dihydro-2H-isoindol-2-yl)cyclohexyl) cyclopropanecarboxamide], the inhibition at 1 µM worked out at 4% in data set [1], 99% in data set [2] and 55% in data set [3].

In the case of `O=C(NC1CC1)N[C@@H]1CCCC[C@H]1N1Cc2ccc(-c3noc(C(F)(F)F)n3)cc2C1=O` [Example 154, 1-cyclopropyl-3-((1R,2R)-2-(1-oxo-6-(5-(trifluoromethyl)-1,2,4-oxadiazol-3-yl)-1,3-dihydro-2H-isoindol-2-yl)cyclohexyl)urea], the values for the inhibition at 1 µM in data set [1], in data set [2] and in data set [3] were 11%, 100% and 54%, respectively.

As to `CC1(C(=O)N[C@@H]2CCCC[C@H]2N2Cc3ccc(-c4noc(C(F)(F)F)n4)cc3C2=O)CC1(F)F` (stereo partly drawn) [Example 111, 2,2-difluoro-1-methyl-N-((1R,2R)-2-(1-oxo-6-(5-(trifluoromethyl)-1,2,4-oxadiazol-3-yl)-1,3-dihydro-2H-isoindol-2-yl)cyclohexyl) cyclopropanecarboxamide], the inhibition at 1 µM in data set [1] was 14%; in data set [2] it was 99%; in data set [3] it was 69%.

`O=C1c2cc(-c3noc(C(F)(F)F)n3)ccc2CN1C1CCNC[C@@H]1c1cc(Cl)cc(Cl)c1` (stereo in doubt) [Example 58, 2-(trans-3-(3,5-dichlorophenyl)piperidin-4-yl)-6-(5-(trifluoromethyl)-1,2,4-oxadiazol-3-yl)isoindolin-1-one]: the inhibition at 1 µM in data set [1] was 99%; in data set [2], 98%; in data set [3] it was 99%.

Turning to `CN1CC(C(=O)N[C@@H]2CCCC[C@H]2N2Cc3ccc(-c4noc(C(F)(F)F)n4)cc3C2=O)CC1=O` (stereo partly drawn) [Example 120, 1-methyl-5-oxo-N-((1R,2R)-2-(1-oxo-6-(5-(trifluoromethyl)-1,2,4-oxadiazol-3-yl)-1,3-dihydro-2H-isoindol-2-yl)cyclohexyl)pyrrolidine-3-carboxamide], the inhibition at 1 µM was -3% in data set [1], 79% in data set [2] and 37% in data set [3].

On to `O=C(N[C@@H]1CCCC[C@H]1N1Cc2ccc(-c3noc(C(F)(F)F)n3)cc2C1=O)N1CC(F)(F)C1` [Example 162, 3,3-difluoro-N-((1R,2R)-2-(1-oxo-6-(5-(trifluoromethyl)-1,2,4-oxadiazol-3-yl)-1,3-dihydro-2H-isoindol-2-yl)cyclohexyl)azetidine-1-carboxamide], for which the inhibition at 1 µM worked out at 5% in data set [1], 99% in data set [2] and 34% in data set [3].

As for `N[C@H]1CCCC[C@@H]1N1Cc2ccc(-c3noc(C(F)(F)F)n3)cc2C1=O` [Example 29, 2-((1S,2S)-2-aminocyclohexyl)-6-(5-(trifluoromethyl)-1,2,4-oxadiazol 3-yl)isoindolin-1-one], the inhibition at 1 µM in data set [1] was -2%; in data set [2], 34%; in data set [3] it was 45%.

Consider `O=C(N[C@@H]1CCCC[C@H]1N1Cc2ccc(-c3noc(C(F)(F)F)n3)cc2C1=O)C1CCCCCO1` (stereo partly drawn) [Example 133, N-((1R,2R)-2-(1-oxo-6-(5-(trifluoromethyl)-1,2,4-oxadiazol-3-yl)-1,3-dihydro-2H-isoindol-2-yl)cyclohexyl)oxepane-2-carboxamide], for which the “HDAC1 inhibitory rate (%) (1 μM)” value in data set [1] was 9%. Moreover, the “HDAC6 inhibitory rate (%) (1 μM)” value in data set [2] amounted to 99%. Further, the “HDAC9 inhibitory rate (%) (1 μM)” value in data set [3] amounted to 38%.
